PMC6199744, “Development of Chemical Proteomics for the Folateome and Analysis of the Kinetoplastid Folateome” (ACS Infectious Diseases, 2018)

Tested on: L. major lysate proteins
Assay: Multitargeted bead mixture chemoproteomics, single concentration competition, proteome-wide
Format: binding
Conditions: for fold change: vehicle control = 1

Compound: Nc1nc2c(c(=O)[nH]1)N(C=O)C(CNc1ccc(C(=O)N[C@@H](CCC(=O)O)C(=O)O)cc1)CN2 (stereo partly drawn) [LEU, leucovorin]
- fold change vs vehicle control (protein LMJF.15.0690 HY[…], CONSERVED): 1.14
- fold change (protein LMJF.15.1010 GLUTAMATE DEHYDROGENASE): 0.98
- fold change (protein LMJF.15.1190 HYPOTHETICAL PROTEIN, CONSERVED (cyclic nucleotide-binding domain containing protein, putative)): 0.96
- fold change vs vehicle control (protein LMJF.16.0520 HYPOTHETICAL PROTEIN, CONSERVED): 1.1
- fold change vs vehicle control (protein LMJF.16.0540 ASPARTATE CARBAMOYLTRANSFERASE, PUTATIVE): 0.98
- fold change relative to vehicle control (protein LMJF.16.0760, TRANSALDOLASE, PUTATIVE): 1.22
- fold change vs vehicle control (protein LMJF.16.0940 DYNEIN LIGHT CHAIN, PUTATIVE): 1.06
- fold change relative to vehicle control (protein LMJF.16.1180, COATOMER DELTA SUBUNIT-LIKE PROTEIN): 1.21
- fold change relative to vehicle control (protein LMJF.16.1320, CYTOCHROME C, PUTATIVE): 2.28
- fold change relative to vehicle control (protein LMJF.16.1420, HY[…], CONSERVED): 1.01
- fold change relative to vehicle control (protein LMJF.17.0081, […] 1-ALPHA): 1.09
- fold change relative to vehicle control (protein LMJF.18.0270, GLYCOGEN SYNTHASE KINASE, PUTATIVE): 0.57
- fold change (protein LMJF.18.0580 P[…]-COA HYDRATASE, PUTATIVE): 1.02
- fold change relative to vehicle control (protein LMJF.18.0680, CITRATE SYNTHASE, PUTATIVE): 1.15
- fold change vs vehicle control (protein LMJF.18.1010 DYNEIN LIGHT CHAIN 2B, CYTOPLASMIC, PUTATIVE): 0.99
- fold change vs vehicle control (protein LMJF.18.1210 PROLYL-TRNA SYNTHETASE, PUTATIVE,BI[…]-TRNA SYNTHETASE, PUTATIVE): 1.38
- fold change vs vehicle control (protein LMJF.18.1370 HEAT SHOCK PROTEIN, PUTATIVE): 0.99
- fold change (protein LMJF.19.0200 ADP,ATP CARRIER PROTEIN 1, MIT[…], PUTATIVE): 1.01
- fold change vs vehicle control (protein LMJF.19.1120 PROTEASOME REGULATORY NON-ATP-ASE SUBUNIT, PUTATIVE): 0.93
- fold change vs vehicle control (protein LMJF.19.1160 HYPOTHETICAL PROTEIN, CONSERVED): 0.87
- fold change vs vehicle control (protein LMJF.19.1560 INOSINE-5'-MONOPHOSPHATE DEHYDROGENASE): 1.06
- fold change relative to vehicle control (protein LMJF.19.1620, POTASSIUM VOLTAGE-GATED CHANNEL, PUTATIVE): 1.08
- fold change vs vehicle control (protein LMJF.20.1280 SMALL MYRISTOYLATED PROTEIN 4, PUTATIVE): 0.97
- fold change (protein LMJF.21.0810 METHIONYL-TRNA SYNTHETASE, PUTATIVE): 1.03
- fold change (protein LMJF.21.1450 ARGININE N-METHYLTRANSFERASE, TYPE II, PUTATIVE): 1.01
- fold change vs vehicle control (protein LMJF.21.1830 […] 5 SUBUNIT, PUTATIVE,20S […] ALPHA 5, (PUTATIVE)): 1.06
- fold change (protein LMJF.22.0230 AMINO ACID PERMEASE, PUTATIVE): 0.86
- fold change vs vehicle control (protein LMJF.22.0570 PROTEASOME REGULATORY ATPASE SUBUNIT 1, PUTATIVE): 0.98
- fold change vs vehicle control (protein LMJF.22.0730 HY[…], CONSERVED): 1.05
- fold change (protein LMJF.22.0770 NADH-CYTOCHROME B5 REDUCTASE, PUTATIVE): 1.02
- fold change relative to vehicle control (protein LMJF.23.0020, HY[…], CONSERVED): 1.09
- fold change relative to vehicle control (protein LMJF.23.0040, PEROXIDOXIN): 1.41
- fold change relative to vehicle control (protein LMJF.23.0080, HY[…], CONSERVED): 1.07
- fold change (protein LMJF.23.0210 ATP-BINDING CASSETTE PROTEIN SUBFAMILY C, MEMBER 1, PUTATIVE): 0.88
- fold change (protein LMJF.23.0370 CYTOCHROME C OXIDASE SUBUNIT 10, PUTATIVE): 0.88
- fold change relative to vehicle control (protein LMJF.23.0540, ACETYL-COA SYNTHETASE, PUTATIVE): 1.24
- fold change vs vehicle control (protein LMJF.23.0560 KINESIN, PUTATIVE): 1.03
- fold change vs vehicle control (protein LMJF.23.1410 HY[…], CONSERVED): 1.01
- fold change relative to vehicle control (protein LMJF.24.0070, HYPOTHETICAL PROTEIN, CONSERVED): 0.98
- fold change (protein LMJF.24.0140 ANKYRIN/TPR REPEAT PROTEIN): 0.96
- fold change (protein LMJF.24.0400 HY[…], CONSERVED (TPR repeat, putative)): 1.02
- fold change relative to vehicle control (protein LMJF.24.1510, IGE-DEPENDENT HISTAMINE-RELEASING FACTOR, PUTATIVE): 1.54
- fold change relative to vehicle control (protein LMJF.24.1630, SUCCINATE DEHYDROGENASE FLAVOPROTEIN, PUTATIVE): 1.06
- fold change relative to vehicle control (protein LMJF.24.2060, TRANSKETOLASE): 0.92
- fold change relative to vehicle control (protein LMJF.25.0010, BETA […] TRANSFERASE): 1.41
- fold change relative to vehicle control (protein LMJF.25.0910, CYCLOPHILIN A): 2.65
- fold change vs vehicle control (protein LMJF.25.1130 […] OXIDASE VII, PUTATIVE): 1.08
- fold change relative to vehicle control (protein LMJF.25.1180, ATPASE BETA SUBUNIT, PUTATIVE): 1.04
- fold change vs vehicle control (protein LMJF.25.1610 HY[…], CONSERVED): 1.03
- fold change vs vehicle control (protein LMJF.25.1620 HYPOTHETICAL PROTEIN, CONSERVED): 0.97
- fold change (protein LMJF.25.2340 SERINE/THREONINE-PROTEIN KINASE, PUTATIVE,PROTEIN KINASE, PUTATIVE): 0.76
- fold change relative to vehicle control (protein LMJF.26.0630, HY[…], CONSERVED): 1.23
- fold change vs vehicle control (protein LMJF.26.1240 HEAT SHOCK PROTEIN 70-RELATED PROTEIN): 1.1
- fold change (protein LMJF.26.1710 CYTOCHROME C OXIDASE SUBUNIT V, PUTATIVE): 0.98
- fold change vs vehicle control (protein LMJF.26.2480 CDP-DIACYLGLYCEROL--INOSITOL 3-PHOSPHATIDYLTRANSFERASE, PUTATIVE): 0.94
- fold change vs vehicle control (protein LMJF.26.2560 HYPOTHETICAL PROTEIN, CONSERVED): 0.91
- fold change vs vehicle control (protein LMJF.27.0190 […] 7 SUBUNIT, PUTATIVE): 1.06
- fold change (protein LMJF.27.0650 HYPOTHETICAL PROTEIN, CONSERVED): 0.98
- fold change (protein LMJF.27.0700 HYPOTHETICAL PROTEIN, CONSERVED): 0.69
- fold change vs vehicle control (protein LMJF.27.0760 GTP-binding protein homologue): 1.15
- fold change vs vehicle control (protein LMJF.27.1060 CYSTEINE DESULFURASE, PUTATIVE): 1.03
- fold change vs vehicle control (protein LMJF.27.1110 MITOCHONDRIAL RNA BINDING PROTEIN 1,GBP21, MRP1): 0.96
- fold change (protein LMJF.27.1250 HYPOTHETICAL PROTEIN, CONSERVED (Serine-threonine kinase receptor-associated protein, putative)): 0.88
- fold change relative to vehicle control (protein LMJF.27.1390, 60S ACIDIC RIBOSOMAL SUBUNIT PROTEIN, PUTATIVE): 1.11
- fold change (protein LMJF.27.1460 PROTEASOME REGULATORY NON-ATP-ASE SUBUNIT 3, PUTATIVE): 0.97
- fold change vs vehicle control (protein LMJF.28.0110 […] 3 SUBUNIT, PUTATIVE): 1.08
